Laboratory results from the NIST ThermoML archive (doi:10.1016/j.fluid.2018.08.011).
Several values for one entry are separate records, joined by “and”; a condition that tells them apart may be missing. Equal entries are not always repeated.

Legend:
[1] = cn = amount concentration of the nth substance listed, in mol/dm3; settings: Drop volume
[2] = for surface tension liquid-gas: Drop volume; for mass density / speed of sound: 101.3 kPa, Liquid; for mass density: Vibrating tube method; for speed of sound: Frequency=3 MHz, Single path-length method

CCCCCCCCCCCCO[C@@H]1O[C@H](CO)[C@@H](O)[C@H](O)[C@H]1O [dodecyl beta.-D-glucopyranoside] + O
surface tension liquid-gas [mN/m], [1]
Settings	310.15 K	323.15 K
c1 = 2.33e-05	52.97	52.98
c1 = 3.58e-05	46.13	46.38
c1 = 5.16e-05	41.28	41.5
c1 = 6.49e-05	38.47	38.5
c1 = 7.97e-05	35.61	–
c1 = 9.31e-05	34.42	35.04
c1 = 0.000106	33.04	33.77
c1 = 0.000123	31.7	32.19
c1 = 0.000131	31.19	31.35
c1 = 0.000146	29.75	29.99
c1 = 0.000162	30.12	29.72
c1 = 0.000169	29.25	28.68
c1 = 0.000177	29.51	28.83
c1 = 0.000187	29.14	28.4
c1 = 0.000198	29.09	28
c1 = 0.00021	29.52	28.11
c1 = 0.000216	29.36	28.07
c1 = 0.000227	29.03	28.56
c1 = 0.000241	29.02	28.29
c1 = 0.000258	29.1	27.87

O [water]
[2]
Settings	mass density [kg/m3]	speed of sound [m/s]	surface tension liquid-gas
283.15 K	999.707	–	73.92 mN/m
285.65 K	999.444	1457.3	–
290.65 K	998.689	1474.7	–
295.65 K	997.658	1490	–
298.15 K	–	–	71.77 mN/m
300.65 K	996.376	1503.3	–
305.65 K	994.867	1514.9	–
310.15 K	–	–	70.13 mN/m and 69.93 mN/m
310.65 K	993.147	1524.7	–
313.15 K	–	1529	–
315.65 K	991.235	1533	–
318.15 K	–	1536.6	–
320.65 K	989.14	1539.8	–
323.15 K	988.029	–	68.15 mN/m and 67.79 mN/m

O [water] + CCCCCCCCCCCCO[C@@H]1O[C@H](CO)[C@@H](O)[C@H](O)[C@H]1O
[1], c2 = 0
Settings	surface tension liquid-gas [mN/m]
310.15 K	69.93
323.15 K	67.79
